Laboratory results as given in US20250179481A1, “COMPOSITIONS AND METHODS FOR TARGETING, EDITING, OR MODIFYING GENES” (Celyntra Therapeutics SA, priority 2021, published 2025).

Columns and labels:
[1] = system: AAVS1; assay: CAR insertion efficiency at AAVS1 in primary T-cells; format: cell-based, human
Description: T-cells were isolated from human peripheral blood obtained from healthy adults by immune-magnetic negative selection using the EasySep Human T-cell Isolation Kit ([sequence] Technologies). After isolation, T-cells were activated in 25 μL mL^−1 ImmunoCult Human CD3/CD28/CD2 T-Cell Activator ([sequence] Technologies) in ImmunoCult-XF T-Cell Expansion Medium ([sequence] Technologies) containing 12.5 ng mL^−1 Human Recombinant IL-2, 5 ng mL^−1 IL-7, and 5 ng mL^−1 IL-15 ([sequence] Technologies) and seeded at 1.0×10^6 cells mL^−1. Until transfection 48 hours later, the cells were cultured at 37° C., in 5% CO2 incubators.
Donor templates comprising site-specific homology arms, respective promoter, and respective gene (GFP or Hu19 scFv-CD8a-CD28-CD3ζ CAR) were amplified from corresponding pTwist Ampicillin high-copy plasmids (Twist Bioscience) using homology arms-specific PCR primers. […] Purified HDR templates were collected and quantified on NanoDrop One Microvolume UV-Vis Spectrophotometer (ThermoFisher Scientific). […] HDR templates were collected, diluted, and concentrations quantified using Qubit dsDNA HS Assay Kit (ThermoFisher Scientific). […]

[2] = system: primary Pan-T donors; details: primary Pan-T cells, RNP + ssODN, M3814 for 24 hours after transfection
Description: The targeted ssODN template (Table 11) was transfected with RNPs in three primary Pan-T donors. Cell pools were harvested post recovery for genotypic evaluation (i.e. modification incorporation via NGS) and also functional analysis (FACS staining).
Conditions were the same as Example 1, and in addition after transfection the cells were treated with the HDR enhancer M3814 for 24 hours to block the NHEJ pathway and 5 thereby increase the incorporation of the ssODN at the on-target side.

[3] = system: predicted off-target sites; assay: INDEL frequency at predicted off-target sites (CasOFFinder, targeted deep sequencing) in Jurkat cells; format: cell-based, human; details: crPDCD1: <=4 mismatches, remaining gNAs <=3 mismatches, vs MOCK, Pairwise T-test
Description: Another consideration for selecting gNAs is the potential for off-target cleavage events. The list of validated gNAs was analyzed using the CasOFFinder software to predict potential off-target editing sites in the genome with up to four mismatches between the gNA and the target DNA sequence. Using the Bioconductor R packages, the predicted off-target sites were matched with the human gene database, and those sites that targeted exons and introns within the genes were extracted. Afterwards, the degree of editing activity at these sites was examined by targeted next-generation sequencing, more specifically, at 25 predicted off-target sites for the top-two PDCD1 gNAs, i.e., crPDCD1_1 and crPDCD1_2. […] INDEL frequency at 43 putative off-target sites with up to three mismatches between gNA and target DNA sequence were assayed for the top-two gNAs targeting seven remaining genes (i.e., TIM3, LAG3, TIG1T, CTLA4, PTPN6, PTPN11, and CD247; spacer sequences in Table 5). […] Specifically. FIGS. 18-19 show INDEL frequency of MAD7 (n=3; Mean±SD) in T-cell leukemic cell line at predicted off-target sites analyzed by targeted deep sequencing. For crPDCD1. INDEL frequency was analyzed at the putative off-target editing sites with ≤4 mismatches between the gNA and target DNA sequence, and with ≤3 mismatches on the remaining gNAs.

[4] = system: PDCD1 protein; assay: Surface expression of the PDCD1 protein by flow cytometry in Jurkat cells; format: cell-based, human; details: flow cytometry 4, 7 and 11 days post-transfection, crPDCD1_2 value at day 4, same at day 11
Description: For detection of PDCD1 knock-out efficiency, approx. 250,000 Jurkat cells per sample were transferred onto 96-well V-bottom cell culture plates and assessed following a series of consecutive washing and staining steps. The first step included centrifuging the cells at 300 g for 5 minutes at 4° C., and discarding the supernatant. Afterwards, the cells were stained using 100 μL Cell Staining Buffer (Biolegend) with APC/Cyanine7 anti-human CD279 (PD-1) antibody (1:100: Biolegend) and incubated for 30 minutes at 4° C., in the dark. The cells were then centrifuged at 300 g for 5 minutes at 4° C., and the supernatant discarded. The next step included two repeats of centrifugation at 300 g for 5 minutes at 4° C., supernatant removal, and cell washing in 150 μL ice-cold Cell Staining Buffer (Biolegend). In the final step, the cells were re-suspended in 100 μL Cell Staining Buffer for the flow cytometry measurements (excitation: red laser; emission: […]).
(§1) High-efficiency gNAs identified in our initial analysis were validated by assaying INDEL frequency for the top three or five gNAs for each of the selected immunologically relevant genes (FIG. 15). […] Alternating grey and white zones on the plot represent groups of three to five high-efficiency gNAs per locus. […] Using the CRISPresso2 software, the degree of open reading frame (ORF) disruption for each of the validated gNAs was estimated (FIG. 15). In addition, for four high-efficiency gNAs targeting three different exons at the PDCD1 locus, surface expression of the PDCD1 protein was measured by flow cytometry 4, 7, and 11 days post-transfection (data not shown).

[5] = system: CD247; assay: gNA validation: frameshift (ORF disruption) frequency, CD247; format: cell-based, human; details: Jurkat, CRISPResso2 ORF analysis
Description: Initial quality assessment of the obtained reads was performed with FastQC36. The sequencing data were aligned and analyzed with the CRISPResso2 software, using CRISPRessoBatch command with the parameters—cleavage_offset 1—quantification_window_size 10—quantification_window_center 1—expand_ambiguous_alignments for the INDEL frequency analysis. For the ORF disruption analysis, CRISPRessoBatch command with the parameters—cleavage_offset 1—coding_seq <EXON_SEQ>—quantification_window_size 0—quantification_window_center 1—expand_ambiguous_alignments was used. Modification rates from the CRISPResso2 software output were analyzed in Excel.
as §1
Average fraction of INDELs leading to frameshifts (dashed line) is approx. 66%. […]

[6] = system: PDCD1, TIM3, LAG3, TIG1T, CTLA4, PTPN6, PTPN11 and CD247; assay: gNA screen: INDEL frequency at eight loci in Jurkat T-cell leukemia cell line; format: cell-based, human; details: gNAs adjacent to all YTTN PAM variants
Description: Ribonucleoprotein complexes (RNPs) were generated by incubating respective guide nucleic acids (gNAs) with MAD7 in the molar ratio of 3:2 gNA: MAD7 for 15 minutes at room temperature immediately before transfection. For Jurkat experiments, the RNP complexes were generated by mixing the respective gNA ([…]), MAD7 ([…]), and nuclease-free water, unless otherwise stated.
Lonza 4D Nucleofector with Shuttle unit (V4SC-2960 Nucleocuvette Strips) was used for transfection, following the manufacturer's instructions. […]
Extracted genomic DNA was quantified using the NanoDrop (ThermoFisher Scientific). […] The DNA was eluted from the beads with nuclease-free water and the size of the purified amplicons analyzed on a 2% agarose E-gel using the E-gel electrophoresis system (ThermoFisher Scientific). In the second PCR, unique pairs of Illumina-compatible indexes (Nextera XT Index Kit v2) were added to the amplicons using the KAPA HiFi HotStart Ready Mix (Roche). […] Sizes of the purified DNA fragments were validated on a 2% agarose gel using the E-gel electrophoresis system (ThermoFisher Scientific), quantified using Qubit dsDNA HS Assay Kit (Thermo Fisher) and then pooled in equimolar concentrations. […] The final library was sequenced on Illumina MiSeq System using the MiSeq Reagent Kit v.2 (300 cycles, […], paired-end reads). […]

[7] = system: AAVS1 locus; assay: INDEL frequency at the AAVS1 locus in Jurkat cells; format: cell-based, human; details: MAD7 RNP
Description: The Jurkat T-cell leukemia cell line was used to evaluate the transgene insertion and expression efficiency using CRISPR-MAD7 RNP complexes. […] Specifically. […] Dark grey bars represent mean INDEL frequency using crAAVS1. Light grey bars represent mean modification frequency using crIDTneg (IDT). The HDR inserts comprised eight promoters (Table 4) differing in both size and promoter strength to drive GFP expression (FIG. 21). […] Specifically. […] HDR templates consisting of eight different promoters and flanked with symmetric homology arms of 500 base pairs in the amount of 0.5 μg μL^−1 were used. Size of promoters in base pairs: CMV, 1400; SCP, 970; CMVe-SCP, 1270; CMVmax, 1830; JET. 1100; CAG, 2600; PGK, 1410; EF-1a, 2090. Dark grey bars and circles present mean insertion frequency and cell viability using crAAVS1. Light grey bars represent mean insertion frequency and cell viability using crIDTneg (IDT).

COc1ccc([C@@H](O)c2cc(-c3ncnc4cc(N5CCOCC5)ccc34)c(F)cc2Cl)nn1 [M3814]
more efficient CAR insertion than other experiments [1]: ~5 times | increase in perfect HDR [2]: 1.5 fold

poly-L-glutamic acid [PGA]
CAR insertion efficiency, treatment with PGA compared to without PGA ([1]; primary T-cells, P<=0.05, data not shown): higher

crPDCD1_2: gNA targeting the PDCD1 gene at the extracellular domain of the protein (guide TCTGCAGGGACAATAGGAGCC; spacer only, further chemistry not given here)
INDEL frequency at predicted off-target sites [3]: low-level off-target activity | surface expression of the PDCD1 protein [4]: 10%

crCD247_4: validated high-efficiency gNA, CD247 (guide CTAGCAGAGAAGGAAGAACCC; spacer only, further chemistry not given here)
frameshifts frequency (fraction of frameshift to INDEL) [5]: 97%

MAD7: type V-A Cas nuclease, SEQ ID NO: 37
editing by PAM motif [6]: editing with all eight combinations of YTTN PAM

crAAVS1: highly active gNA targeting the AAVS1 safe-harbor locus, spacer sequence in Table 5 (guide TTAGGATGGCCTTCTCCGACG; spacer only, further chemistry not given here)
INDEL frequency at the AAVS1 locus [7]: highly active
